Consider 19 compounds from ChEMBL document CHEMBL5108009, “Positron Emission Tomography (PET) Imaging Tracers for Serotonin Receptors” (J Med Chem, 2022).

For series [1], the target named is 5-hydroxytryptamine receptor 7 (Rattus norvegicus, UniProt P32305). Kind of series: Binding affinity to rat 5-HT7 receptor assessed as inhibition constant.
Series [2] has as its target T1, 5-hydroxytryptamine receptor 7 (Homo sapiens, UniProt P34969). The series can be described thus: Binding affinity to human 5-HT7 receptor expressed in HEK293 cells incubated for 1 hr by 96 microwell plate. The class given is cell-based. As to conditions: filed as agonist.
For series [3], the target named is Alpha-1A adrenergic receptor (Homo sapiens) (UniProt P35348). The series can be described thus: Binding affinity to alpha 1A adrenergic receptor (unknown origin). As to conditions: filed as antagonist.
Series [4] deals with T2, 5-hydroxytryptamine receptor 1A (Rattus norvegicus, UniProt P19327).
T2 sequence (P19327 whole entry): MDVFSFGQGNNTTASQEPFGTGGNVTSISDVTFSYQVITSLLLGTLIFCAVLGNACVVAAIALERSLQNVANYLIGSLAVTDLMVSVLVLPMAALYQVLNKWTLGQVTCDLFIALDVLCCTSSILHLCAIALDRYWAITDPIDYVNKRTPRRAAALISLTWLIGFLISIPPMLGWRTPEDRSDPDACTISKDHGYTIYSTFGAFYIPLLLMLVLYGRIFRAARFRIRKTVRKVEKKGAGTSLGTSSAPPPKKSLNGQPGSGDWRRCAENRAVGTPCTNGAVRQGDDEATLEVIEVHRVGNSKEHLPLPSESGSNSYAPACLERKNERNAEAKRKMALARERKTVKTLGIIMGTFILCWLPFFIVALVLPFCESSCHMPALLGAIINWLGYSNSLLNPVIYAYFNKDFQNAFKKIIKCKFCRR
The series can be described thus: Displacement of [3H]-8-OH-DPAT from rat hippocampal membrane 5HT1A receptor by CEREP assay. Type of series: cell membranes, Hippocampus.

Series [5] can be described thus: Ratio of drug uptake in rhesus monkey temporal cortex to cerebellum assessed as non-displaceable binding potential. The class given is ADME, tissue-based, Macaca mulatta. Conditions: in vivo.
For series [6], the target named is 5-hydroxytryptamine receptor 2A (Homo sapiens, UniProt P28223). The series can be described thus: Binding affinity to human 5-HT2A transfected in human tsA201 cells assessed as inhibition constant incubated for 2 hrs by scintillation counter analysis. The class given is cell-based.
Sequence of 5-hydroxytryptamine receptor 2A (P28223 whole entry): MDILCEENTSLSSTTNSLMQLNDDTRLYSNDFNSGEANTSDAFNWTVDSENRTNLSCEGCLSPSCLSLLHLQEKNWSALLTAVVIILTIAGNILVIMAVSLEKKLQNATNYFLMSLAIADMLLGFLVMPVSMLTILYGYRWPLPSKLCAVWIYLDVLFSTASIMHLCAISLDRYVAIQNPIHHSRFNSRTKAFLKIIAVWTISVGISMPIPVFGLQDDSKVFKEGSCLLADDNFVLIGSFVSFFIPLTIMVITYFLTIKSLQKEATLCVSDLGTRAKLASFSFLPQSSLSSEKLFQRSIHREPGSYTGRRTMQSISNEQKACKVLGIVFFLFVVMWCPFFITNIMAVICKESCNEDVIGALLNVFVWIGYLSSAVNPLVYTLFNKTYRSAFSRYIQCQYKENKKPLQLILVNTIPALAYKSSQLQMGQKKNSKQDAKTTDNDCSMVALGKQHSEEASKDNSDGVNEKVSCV
The nature of series [7]: Ratio of drug uptake in cynomolgus monkey cingulate gyrus to cerebellum measured at 87.5 mins postinjection. The class given is ADME, organism-based, Macaca fascicularis. Conditions: in vivo, 1.458 h.
The nature of series [8]: Biodistribution in rat assessed as drug uptake measured as percentage of injected dose per gram of tissue relative to control. The class given is ADME, organism-based. Conditions: in vivo.
The target in series [9] is T1, 5-hydroxytryptamine receptor 7. Kind of series: Binding affinity to human recombinant 5-HT7 receptor expressed in CHO cells assessed as inhibition constant. The class given is cell-based.
In series [10] the target is T3, 5-hydroxytryptamine receptor 1A (Homo sapiens, UniProt P08908).
T3 sequence (P08908 whole entry): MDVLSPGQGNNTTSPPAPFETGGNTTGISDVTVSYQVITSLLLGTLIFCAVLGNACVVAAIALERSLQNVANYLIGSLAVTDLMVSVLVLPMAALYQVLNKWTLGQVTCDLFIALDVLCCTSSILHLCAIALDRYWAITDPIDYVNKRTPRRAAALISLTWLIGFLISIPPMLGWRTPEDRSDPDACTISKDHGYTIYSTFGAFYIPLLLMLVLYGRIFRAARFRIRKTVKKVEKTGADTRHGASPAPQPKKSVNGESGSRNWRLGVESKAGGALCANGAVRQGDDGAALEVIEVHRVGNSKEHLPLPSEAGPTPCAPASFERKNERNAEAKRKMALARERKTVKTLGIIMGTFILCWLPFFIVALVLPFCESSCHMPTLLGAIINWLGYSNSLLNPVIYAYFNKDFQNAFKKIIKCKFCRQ
The series can be described thus: Binding affinity to human recombinant 5-HT1A expressed in CHO cells assessed as inhibition constant. The class given is cell-based.

For series [11], the target named is 5-hydroxytryptamine receptor 1A (Homo sapiens) (UniProt P08908). Kind of series: Binding affinity to 5-HT1A receptor (unknown origin). Conditions: filed as agonist.
Series [12] concerns the target T3, 5-hydroxytryptamine receptor 1A.
In series [13] the target is T1, 5-hydroxytryptamine receptor 7. The series can be described thus: Binding affinity to 5-HT7 receptor (unknown origin) assessed as inhibition constant.
Series [14] has as its target T4, Alpha-1A adrenergic receptor (Homo sapiens, UniProt P35348).
T4 sequence (P35348 whole entry): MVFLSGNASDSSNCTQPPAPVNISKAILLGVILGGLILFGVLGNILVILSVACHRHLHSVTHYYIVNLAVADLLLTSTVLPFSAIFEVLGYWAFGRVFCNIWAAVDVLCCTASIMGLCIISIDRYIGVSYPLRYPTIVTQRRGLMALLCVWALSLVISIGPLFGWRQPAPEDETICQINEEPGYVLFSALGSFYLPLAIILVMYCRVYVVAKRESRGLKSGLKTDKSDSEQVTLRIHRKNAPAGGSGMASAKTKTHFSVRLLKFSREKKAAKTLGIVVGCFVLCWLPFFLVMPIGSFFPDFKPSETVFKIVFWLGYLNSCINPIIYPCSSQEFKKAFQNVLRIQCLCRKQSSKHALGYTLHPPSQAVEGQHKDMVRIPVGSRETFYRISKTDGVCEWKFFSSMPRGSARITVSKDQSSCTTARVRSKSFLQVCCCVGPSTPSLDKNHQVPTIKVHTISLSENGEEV
The series can be described thus: Binding affinity to alpha 1A adrenergic receptor (unknown origin) assessed as inhibition constant.

The target in series [15] is D(4) dopamine receptor (Homo sapiens, UniProt P21917). Kind of series: Binding affinity to D4 receptor (unknown origin) assessed as inhibition constant.
Sequence of D(4) dopamine receptor (P21917 whole entry): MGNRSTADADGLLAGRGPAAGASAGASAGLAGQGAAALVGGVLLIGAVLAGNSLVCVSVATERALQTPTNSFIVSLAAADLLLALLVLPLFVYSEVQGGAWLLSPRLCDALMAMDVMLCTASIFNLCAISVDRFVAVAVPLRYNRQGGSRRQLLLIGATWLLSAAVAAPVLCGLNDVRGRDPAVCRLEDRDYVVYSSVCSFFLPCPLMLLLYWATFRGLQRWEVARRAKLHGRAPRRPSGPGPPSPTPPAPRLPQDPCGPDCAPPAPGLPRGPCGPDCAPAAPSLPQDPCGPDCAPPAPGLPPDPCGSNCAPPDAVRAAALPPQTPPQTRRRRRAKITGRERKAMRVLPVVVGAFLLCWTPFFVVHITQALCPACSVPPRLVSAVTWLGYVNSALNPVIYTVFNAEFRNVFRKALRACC
For series [16], the target named is T1, 5-hydroxytryptamine receptor 7. Kind of series: Binding affinity to human recombinant 5-HT7 receptor assessed as inhibition constant.
A short description of series [17]: Ratio of drug uptake in rat hippocampus to cerebellum by measuring radioactivity at […], iv. As to conditions: in vivo, dose 25-30 mCi. Type of series: ADME, tissue-based.
The conditions of series [18]: plasma, 10 min.
Description: Drug metabolism in plasma (unknown origin) assessed as parent compound remaining by measuring total radioactivity at 10 mins by HPLC analysis
Series [19] deals with T5, 5-hydroxytryptamine receptor 2C (Homo sapiens, UniProt P28335).
T5 sequence (P28335 whole entry): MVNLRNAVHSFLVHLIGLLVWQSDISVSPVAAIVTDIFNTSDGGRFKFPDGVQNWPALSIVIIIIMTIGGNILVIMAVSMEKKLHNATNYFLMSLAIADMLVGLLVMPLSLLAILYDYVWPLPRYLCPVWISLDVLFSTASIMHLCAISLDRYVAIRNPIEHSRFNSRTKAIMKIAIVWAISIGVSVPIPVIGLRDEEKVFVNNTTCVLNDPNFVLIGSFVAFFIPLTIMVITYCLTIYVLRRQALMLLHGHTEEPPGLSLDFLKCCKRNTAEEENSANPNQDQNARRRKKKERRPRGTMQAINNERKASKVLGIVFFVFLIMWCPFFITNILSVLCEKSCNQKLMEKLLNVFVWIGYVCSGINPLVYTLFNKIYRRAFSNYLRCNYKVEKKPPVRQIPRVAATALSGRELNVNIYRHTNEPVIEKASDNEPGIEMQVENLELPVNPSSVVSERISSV
The series can be described thus: Binding affinity to human 5-HT2C assessed as inhibition constant.

T1 sequence (P34969 whole entry): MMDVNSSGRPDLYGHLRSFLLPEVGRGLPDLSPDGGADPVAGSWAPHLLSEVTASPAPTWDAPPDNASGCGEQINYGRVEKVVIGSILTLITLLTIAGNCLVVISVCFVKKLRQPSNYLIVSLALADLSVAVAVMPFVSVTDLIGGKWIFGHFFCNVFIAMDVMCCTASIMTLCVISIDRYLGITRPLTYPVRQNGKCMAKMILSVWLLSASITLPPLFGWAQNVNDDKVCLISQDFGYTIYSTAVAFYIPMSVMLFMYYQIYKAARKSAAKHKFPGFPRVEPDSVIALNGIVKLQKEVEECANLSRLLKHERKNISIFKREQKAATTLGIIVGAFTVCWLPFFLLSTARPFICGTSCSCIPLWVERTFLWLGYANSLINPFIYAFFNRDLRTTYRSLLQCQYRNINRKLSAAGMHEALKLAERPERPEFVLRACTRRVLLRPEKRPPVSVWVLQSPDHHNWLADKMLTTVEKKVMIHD
Sequence of 5-hydroxytryptamine receptor 7 (Rattus norvegicus, UniProt P32305) (P32305 whole entry): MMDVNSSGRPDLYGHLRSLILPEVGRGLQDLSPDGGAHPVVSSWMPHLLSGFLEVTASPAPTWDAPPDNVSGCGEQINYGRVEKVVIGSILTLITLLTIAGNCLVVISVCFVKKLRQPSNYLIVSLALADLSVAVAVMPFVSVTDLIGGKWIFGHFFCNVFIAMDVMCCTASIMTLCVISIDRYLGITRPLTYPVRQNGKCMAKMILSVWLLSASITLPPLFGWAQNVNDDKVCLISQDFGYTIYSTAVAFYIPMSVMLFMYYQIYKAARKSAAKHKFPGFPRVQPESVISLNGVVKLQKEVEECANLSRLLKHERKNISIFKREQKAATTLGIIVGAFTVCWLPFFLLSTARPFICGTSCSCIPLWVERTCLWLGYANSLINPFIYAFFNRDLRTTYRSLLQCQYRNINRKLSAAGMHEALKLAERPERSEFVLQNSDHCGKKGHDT

`CC1(CCCCN2CCN(c3cccc(OCCF)c3)CC2)C(=O)Nc2ccccc21` (stereo unspecified): the Ki in [1] was found to be 5.6 nM. The compound `CCn1cncc1-c1c[nH]c2ccc(OC)cc12` returned a K in series [2] of 30 nM. For the compound `COc1ccccc1N1CCN(CCCCn2ccnc2SC)CC1`, the K in series [3] was determined as 3 nM. This compound also had an IC50 in series [4] of 0.58 nM. Take `CCC1(CCCCN2CCN(c3cccc(OCCF)c3)CC2)C(=O)Nc2ccccc21` (stereo unspecified): the Ki in series [1] turned out to be 13 nM. Take `COc1ccccc1N1CCN(CCN(c2ccccn2)C(=O)[C@H]2CC[C@@H](C[18F])CC2)CC1`: the Ratio in series [5] is 0.58.

`COc1cc(Br)c(OCC[18F])cc1CCNCc1ccccc1OC`: in [6], the Ki is below 1.2 nM. `[11CH3]Oc1ccccc1N1CCN(CC[C@@H](C(=O)N2CCCCCC2)c2ccccc2)CC1`: the Ratio in series [7] is 6.4. In the case of `COc1ccccc1N1CCN(CCCCN(C)C(=O)c2cnc(S[11CH3])n2C)CC1`, the Drug uptake in [8] was found to be 0.37 % ID/g.

In the case of `COc1ccccc1N1CCN(CCC[C@H]2CCCN2S(=O)(=O)c2ccc(F)cc2)CC1`, the Ki amounted to 2.6 nM in series [9] and 6.8 nM in series [10]. As to `COc1ccccc1N1CCN(CCC[C@H]2CCCN2S(=O)(=O)c2ccccc2F)CC1`, the Ki in [9] was determined as 1.9 nM; in series [10], 4.1 nM. With `COc1ccccc1N1CCN(CC(O)COc2cccc3c2SCCC3)CC1` (stereo unspecified), the K in series [11] was found to be 5 nM.

As to `COc1cc(CCNCc2ccccc2OC)c(OCC[18F])cc1Br`, the Ki in series [6] is below 1.2 nM. With `COc1ccccc1N1CCN(CCCCN(C)C(=O)c2cnc(SC)n2C)CC1`, the K in series [3] worked out at 5.45 nM. In addition, in series [4], the IC50 worked out at 0.86 nM. Turning to `COc1cccc(N2CCN(CCCCn3ncc(=O)n(C)c3=O)CC2)c1`, the inhibition constant Ki in series [12] stood at 0.15 nM; in series [13], 12.9 nM; in [14], 6.75 nM; in series [15], 21.8 nM.

With `Cc1ccc(N2CCN(CCCCC3C(=O)Nc4ccccc43)CC2)cc1` (stereo unspecified), the inhibition constant (Ki) in [16] turned out to be 1.1 nM. `O=C(C1CCCCC1)N(CCN1CCN(c2ccccc2OCCC[18F])CC1)c1ccccn1`: the Ratio in series [17] is 7.5. `O=[11C](C1CCCCC1)N(CCN1CCN(c2ccccc2O)CC1)c1ccccn1` showed a Stability in [18] below 10%. Consider `COc1c(OCCF)cccc1[C@H](O)C1CCN(CCc2ccc(F)cc2)CC1`, for which the Ki in series [19] was determined as 71 nM.

As for `COc1ccccc1N1CCN(CCCCn2ccnc2S[11CH3])CC1`, the Drug uptake in series [8] was found to be 1.14 % ID/g.

As usually defined, the Ki is the dissociation constant of the complex between target and ligand, obtained from inhibition or displacement. As usually defined, the IC50 is the concentration that gives 50% inhibition.
